Laboratory results published in ChEMBL document CHEMBL1201862, “PubChem BioAssay data set” (2004).
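Values below derive from 48-hour exposures of cells grown in 96-well plates, with endpoints linearly interpolated between the two concentrations bracketing the appropriate inhibition level. GI50 marks 50% less growth.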 Calls of active or inactive are those of the source. Rule as the data show it: active = GI50 up to about 1.1 µM and inactive = higher.

Tests used:
Assay in all cases: inhibition of tumour cell growth, NCI panel, 48 h
786-0 = tested on: 786-0
A549 = tested on: A549
ACHN = tested on: ACHN
CAKI-1 = tested on: CAKI-1
CCRF-CEM = tested on: CCRF-CEM
COLO 205 = tested on: COLO 205
DLD-1 = tested on: DLD-1
DMS-114 = tested on: DMS-114
DMS-273 = tested on: DMS-273
EKVX = tested on: EKVX
HCC 2998 = tested on: HCC 2998
HCT-116 = tested on: HCT-116
HCT-15 = tested on: HCT-15
HL-60 = tested on: HL-60
HOP-62 = tested on: HOP-62
HOP-92 = tested on: HOP-92
HT-29 = tested on: HT-29
IGROV-1 = tested on: IGROV-1
K562 = tested on: K562
KM-20L2 = tested on: KM-20L2
KM12 = tested on: KM12
LOX IMVI = tested on: LOX IMVI
LXFL 529 = tested on: LXFL 529
M14 = tested on: M14
M19-MEL = tested on: M19-MEL
Malme-3M = tested on: Malme-3M
NCI-H226 = tested on: NCI-H226
NCI-H23 = tested on: NCI-H23
NCI-H460 = tested on: NCI-H460
NCI-H522 = tested on: NCI-H522
OVCAR-3 = tested on: OVCAR-3
OVCAR-4 = tested on: OVCAR-4
OVCAR-5 = tested on: OVCAR-5
OVCAR-8 = tested on: OVCAR-8
RPMI-8226 = tested on: RPMI-8226
RXF 393 = tested on: RXF 393
SF-268 = tested on: SF-268
SF-295 = tested on: SF-295
SF-539 = tested on: SF-539
SK-MEL-28 = tested on: SK-MEL-28
SK-MEL-2 = tested on: SK-MEL-2
SK-MEL-5 = tested on: SK-MEL-5
SK-OV-3 = tested on: SK-OV-3
SN12C = tested on: SN12C
SNB-19 = tested on: SNB-19
SNB-75 = tested on: SNB-75
SNB-78 = tested on: SNB-78
SR = tested on: SR
SW-620 = tested on: SW-620
TK-10 = tested on: TK-10
U-251 = tested on: U-251
UACC-62 = tested on: UACC-62
UO-31 = tested on: UO-31
MOLT-4 = tested on: MOLT-4
UACC-257 = tested on: UACC-257

`CC1=COC(=O)c2ccccc2N1` was tested, and the GI50 (786-0) was > 100 µM (inactive), the GI50 (A549) was > 100 µM (inactive) and the GI50 (ACHN) was > 100 µM (inactive). For the same compound, the GI50 (CAKI-1) was > 100 µM (inactive), the GI50 (CCRF-CEM) was > 100 µM (inactive) and the GI50 (COLO 205) was > 100 µM (inactive). The GI50 (DLD-1) was > 100 µM (inactive), the GI50 (DMS-114) was > 100 µM (inactive) and the GI50 (DMS-273) was > 100 µM (inactive). For the same compound, the GI50 (EKVX) was > 100 µM (inactive), the GI50 (HCC 2998) was > 100 µM (inactive) and the GI50 (HCT-116) was > 100 µM (inactive). The GI50 (HCT-15) was greater than 100 µM, the GI50 (HL-60) was > 100 µM (inactive) and the GI50 (HOP-62) was > 100 µM (inactive). The GI50 (HOP-92) was > 100 µM (inactive), the GI50 (HT-29) was > 100 µM (inactive) and the GI50 (IGROV-1) was > 100 µM (inactive). The GI50 (K562) was > 100 µM (inactive), the GI50 (KM-20L2) was > 100 µM (inactive) and the GI50 (KM12) was > 100 µM (inactive). The GI50 (LOX IMVI) was > 100 µM (inactive), the GI50 (LXFL 529) was > 100 µM (inactive) and the GI50 (M14) was > 100 µM (inactive). For the same compound, the GI50 (M19-MEL) was > 100 µM (inactive), the GI50 (Malme-3M) was > 100 µM (inactive) and the GI50 (NCI-H226) was > 100 µM (inactive). For the same compound, the GI50 (NCI-H23) was > 100 µM (inactive), the GI50 (NCI-H460) was > 100 µM (inactive) and the GI50 (NCI-H522) was > 100 µM (inactive). The GI50 (OVCAR-3) was > 100 µM (inactive), the GI50 (OVCAR-4) was > 100 µM (inactive) and the GI50 (OVCAR-5) was > 100 µM (inactive). For the same compound, the GI50 (OVCAR-8) was > 100 µM (inactive), the GI50 (RPMI-8226) was > 100 µM (inactive) and the GI50 (RXF 393) was > 100 µM (inactive). For the same compound, the GI50 (SF-268) was > 100 µM (inactive), the GI50 (SF-295) was > 100 µM (inactive) and the GI50 (SF-539) was > 100 µM (inactive). The GI50 (SK-MEL-28) was > 100 µM (inactive), the GI50 (SK-MEL-2) was > 100 µM (inactive) and the GI50 (SK-MEL-5) was > 100 µM (inactive). For the same compound, the GI50 (SK-OV-3) was > 100 µM (inactive), the GI50 (SN12C) was > 100 µM (inactive) and the GI50 (SNB-19) was > 100 µM (inactive). For the same compound, the GI50 (SNB-75) was > 100 µM (inactive), the GI50 (SNB-78) was > 100 µM (inactive) and the GI50 (SR) was > 100 µM (inactive). The GI50 (SW-620) was > 100 µM (inactive), the GI50 (TK-10) was > 100 µM (inactive) and the GI50 (U-251) was > 100 µM (inactive). The GI50 (UACC-62) was > 100 µM (inactive) and the GI50 (UO-31) was > 100 µM (inactive).

In the case of `CCCCc1c2c(nc3c1CC/C(=C\c1ccccc1)C3=O)CCCC2`, the GI50 (786-0) was 2.33 µM (inactive), the GI50 (A549) was 12.3 µM (inactive) and the GI50 (ACHN) was 12.1 µM (inactive). For the same compound, the GI50 (CCRF-CEM) was 3.43 µM (inactive), the GI50 (COLO 205) was 7.48 µM (inactive) and the GI50 (DLD-1) was 3.38 µM (inactive). The GI50 (DMS-114) was 7.74 µM (inactive), the GI50 (DMS-273) was 2.59 µM (inactive) and the GI50 (EKVX) was 12.2 µM (inactive). The GI50 (HCC 2998) was 3.52 µM (inactive), the GI50 (HCT-116) was 4.9 µM (inactive) and the GI50 (HCT-15) was 3.3 µM. For the same compound, the GI50 (HL-60) was 2.79 µM (inactive), the GI50 (HOP-62) was 4.62 µM (inactive) and the GI50 (HT-29) was 2.22 µM (inactive). The GI50 (IGROV-1) was 4.61 µM (inactive), the GI50 (K562) was 4.07 µM (inactive) and the GI50 (KM-20L2) was 3.59 µM (inactive). For the same compound, the GI50 (KM12) was 3.85 µM (inactive), the GI50 (LOX IMVI) was 1.76 µM (inactive) and the GI50 (LXFL 529) was 1.74 µM (inactive). For the same compound, the GI50 (M14) was 4.91 µM (inactive), the GI50 (M19-MEL) was 4.72 µM (inactive) and the GI50 (MOLT-4) was 3.33 µM (inactive). The GI50 (Malme-3M) was 7.33 µM (inactive), the GI50 (NCI-H226) was > 10 µM (inactive) and the GI50 (NCI-H23) was 5.43 µM (inactive). For the same compound, the GI50 (NCI-H460) was 4.89 µM (inactive), the GI50 (NCI-H522) was 2.15 µM (inactive) and the GI50 (OVCAR-3) was 3.25 µM (inactive). For the same compound, the GI50 (OVCAR-8) was 1.98 µM (inactive), the GI50 (RPMI-8226) was 2.88 µM (inactive) and the GI50 (RXF 393) was 2.6 µM (inactive). The GI50 (SF-268) was 3.49 µM (inactive), the GI50 (SF-295) was 4.47 µM (inactive) and the GI50 (SF-539) was 2.29 µM (inactive). For the same compound, the GI50 (SK-MEL-28) was 3.37 µM (inactive), the GI50 (SK-OV-3) was 10.2 µM (inactive) and the GI50 (SN12C) was 3.18 µM (inactive). The GI50 (SNB-19) was 3.48 µM (inactive), the GI50 (SNB-75) was 11 µM (inactive) and the GI50 (SNB-78) was 2.99 µM (inactive). For the same compound, the GI50 (SR) was 3.54 µM (inactive), the GI50 (SW-620) was 1.99 µM (inactive) and the GI50 (TK-10) was 9.33 µM (inactive). For the same compound, the GI50 (U-251) was 3.49 µM (inactive), the GI50 (UACC-257) was 5.78 µM (inactive) and the GI50 (UACC-62) was 2.72 µM (inactive). The GI50 (UO-31) was 6.05 µM (inactive).
